Source: patent publication US12371464B2, “Polypeptides and uses thereof” (MEDIMMUNE LIMITED, priority 2020, dated 2025)
Numbered stars: 1 amine (or outer) side, 2 acyl side, 3 side chain; on linkers, the order of the positions; unused ones are H or OH. Bridge positions count the residues as written; N and C are the ends. Square brackets hold non-standard residues; d marks the D form. Side chains are listed from the residue outwards. Peptide text beside a SMILES is read from it. * marks the point of attachment. C20 diacid = O=C(O)CCCCCCCCCCCCCCCCCCC(=O)*; C18 diacid = O=C(O)CCCCCCCCCCCCCCCCC(=O)*; γGlu = O=C(O)[C@H](CCC(=O)[*:2])N[*:1]; αMeF = C[C@](N)(Cc1ccccc1)C(=O)O; Dab = NCC[C@H](N)C(=O)O; AEEA = NCCOCCOCC(=O)O; Aib = CC(C)(N)C(=O)O

What was measured:
[1] = tested on: lean rats; experiment: Rat acute food intake study; type: in vivo, Sprague Dawley rats; details: 20 nmol/kg subcutaneously
Experimental: Male Sprague Dawley rats were obtained from Taconic Denmark, ApS at approximately 7 weeks of age. . . . Rats were implanted with a microchip for identification, housed 4/cage with enrichment, free access to food and water, and allowed one week acclimatisation while non-invasive characterization was performed. Rats were on a 12:12 light:dark cycle that switches at 1 pm:1 am. Food intake was monitored via the HM2 system (Lafayette Instrument) that allows for monitoring in a home cage. As each rat enters an access tunnel to feed, an IR beam is broken, and the implanted microchip is read. Resulting changes to food weight is then assigned to the specific animal. Social order has shown no impact to overall feeding patterns and amounts.
Rats were sorted into groups based on Day-1 body weight and 24-hour accumulated food intake (n=7 per group). On Day 0 rats were weighed, then fasted for 6 hours. Thirty (30) minutes prior to the reintroduction of food, rats were dosed subcutaneously (5 ml/kg) with 20 nmol/kg of test compound or 60 nmol/kg peptide 1 (pramlintide) diluted in an appropriate vehicle, after which food was returned, and lights went out. Automated food intake was monitored for the following 3 days, and rats were weighed once per day.
Food intake per rat was batched into 1-hour intervals and integrated into Gubra's GubraView data management system. Discrete food intake data was exported into MS Excel from which cumulative food intake data was generated. Cumulative food intake data was then transposed into GraphPad Prism (v8.0.1) for analysis of dark period feeding

[2] = Thioflavin T fibrillation assay; type: physicochemical; details: for Time taken to detect increase in fluorescence intensity: 1 mg/mL in 25 mM sodium acetate buffer pH 4.0, 37° C., 6 days, orbital shaking, >144 h = no increase; for fibril-forming tendency on conjugating pramlintide to a lipid: as seen in Table 7
Procedure, shortened: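 Peptides at 1 mg/mL in 25 mM sodium acetate pH 4.0 were mixed with ThT (0.25 mM stock) and held 6 days at 37 °C with intermittent orbital shaking at 500–750 rpm. Fluorescence (ex 444/em 480 nm) was read every 30 min, with buffer baseline correction and 5 replicates. Value: mean time to a detectable fluorescence increase.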

Row | Compound | Cummulative food intake (% vehicle treated intake) At 12 h ([1]; at 12 h) | Cummulative food intake (% vehicle treated intake) At 24 h ([1]; at 24 h) | Time taken to detect increase in fluorescence intensity [2] | fibril-forming tendency on conjugating pramlintide to a lipid [2]
1 | CC[C@H](C)[C@H](NC(=O)[C@@H]1CCCN1C(=O)CNC(=O)[C@H](Cc1ccccc1)NC(=O)[C@H](CC(N)=O)NC(=O)C(C)(C)NC(=O)[C@H](CO)NC(=O)[C@H](CO)NC(=O)[C@H](Cc1c[nH]cn1)NC(=O)[C@@H](NC(=O)[C@H](CC(C)C)NC(=O)[C@H](Cc1ccccc1)NC(=O)[C@H](CCC(=O)O)NC(=O)[C@H](C)NC(=O)[C@H](CC(C)C)NC(=O)[C@H](CCCNC(=N)N)NC(=O)[C@H](CCC(N)=O)NC(=O)[C@@H](NC(=O)[C@H](C)NC(=O)[C@@H]1CSSC[C@H](NC(=O)[C@H](CCCCN)NC(=O)[C@@H](N)CCCCNC(=O)CC[C@H](NC(=O)CCCCCCCCCCCCCCCCC(=O)O)C(=O)O)C(=O)N[C@@H](CC(N)=O)C(=O)N[C@@H]([C@@H](C)O)C(=O)N[C@@H](C)C(=O)N[C@@H]([C@@H](C)O)C(=O)N1)[C@@H](C)O)C(C)C)C(=O)N[C@@H](CC(C)C)C(=O)N1CCC[C@H]1C(=O)N1CCC[C@H]1C(=O)N[C@H](C(=O)N[C@@H](CC(N)=O)C(=O)N[C@H](C(=O)NCC(=O)N[C@@H](CO)C(=O)N[C@@H](CC(N)=O)C(=O)N[C@H](C(=O)N[C@@H](Cc1ccc(O)cc1)C(N)=O)[C@@H](C)O)C(C)C)[C@@H](C)O [Peptide 38, K(γE-C18diacid)K[CNTATC]ATQRLAEFLVHSS(Aib)NFGPILPPTNVGSNTY-amide] (H-K([γGlu-C18 diacid])KCNTATCATQRLAEFLVHSS[Aib]NFGPILPPTNVGSNTY-NH2; disulfide 3-8; N-terminus assumed) | 6.9 % vehicle treated intake | 5.5 % vehicle treated intake | – | –
2 | CC[C@H](C)[C@H](NC(=O)[C@@H]1CCCN1C(=O)CNC(=O)[C@H](Cc1ccccc1)NC(=O)[C@H](CC(N)=O)NC(=O)[C@H](CC(N)=O)NC(=O)[C@H](CO)NC(=O)[C@H](CO)NC(=O)[C@H](Cc1c[nH]cn1)NC(=O)[C@@H](NC(=O)[C@H](CC(C)C)NC(=O)[C@H](Cc1ccccc1)NC(=O)[C@H](CC(N)=O)NC(=O)[C@H](C)NC(=O)[C@H](CC(C)C)NC(=O)[C@H](CCCNC(=N)N)NC(=O)[C@H](CCC(N)=O)NC(=O)[C@@H](NC(=O)[C@H](C)NC(=O)[C@@H]1CSSC[C@H](NC(=O)[C@H](CCCCN)NC(=O)CC[C@H](NC(=O)CCCCCCCCCCCCCCCCC(=O)O)C(=O)O)C(=O)N[C@@H](CC(N)=O)C(=O)N[C@@H]([C@@H](C)O)C(=O)N[C@@H](C)C(=O)N[C@@H]([C@@H](C)O)C(=O)N1)[C@@H](C)O)C(C)C)C(=O)N[C@@H](CC(C)C)C(=O)N1CCC[C@H]1C(=O)N1CCC[C@H]1C(=O)N[C@H](C(=O)N[C@@H](CC(N)=O)C(=O)N[C@H](C(=O)NCC(=O)N[C@@H](CO)C(=O)N[C@@H](CC(N)=O)C(=O)N[C@H](C(=O)N[C@@H](Cc1ccc(O)cc1)C(N)=O)[C@@H](C)O)C(C)C)[C@@H](C)O [Peptide 3] ({C18 diacid-γGlu}-KCNTATCATQRLANFLVHSSNNFGPILPPTNVGSNTY-NH2; disulfide 2-7) | – | – | <5 h | increases the fibril-forming tendency
3 | CC[C@H](C)[C@H](NC(=O)[C@@H]1CCCN1C(=O)CNC(=O)[C@](C)(Cc1ccccc1)NC(=O)[C@H](CC(N)=O)NC(=O)[C@H](CC(N)=O)NC(=O)[C@H](CO)NC(=O)[C@H](CO)NC(=O)[C@H](Cc1c[nH]cn1)NC(=O)[C@H](CCCNC(=N)N)NC(=O)[C@H](CC(C)C)NC(=O)[C@H](Cc1ccccc1)NC(=O)[C@H](CC(N)=O)NC(=O)[C@H](C)NC(=O)[C@H](CC(C)C)NC(=O)[C@H](CCCNC(=N)N)NC(=O)[C@H](CCC(N)=O)NC(=O)[C@@H](NC(=O)[C@H](C)NC(=O)[C@@H]1CSSC[C@H](NC(=O)[C@@H](N)CCCCNC(=O)CC[C@H](NC(=O)CC[C@H](NC(=O)CCCCCCCCCCCCCCCCC(=O)O)C(=O)O)C(=O)O)C(=O)N[C@@H](CC(N)=O)C(=O)N[C@@H]([C@@H](C)O)C(=O)N[C@@H](C)C(=O)N[C@@H]([C@@H](C)O)C(=O)N1)[C@@H](C)O)C(=O)N[C@@H](CC(C)C)C(=O)N1CCC[C@H]1C(=O)N1CCC[C@H]1C(=O)N[C@H](C(=O)N[C@@H](CCC(=O)O)C(=O)N[C@H](C(=O)NCC(=O)N[C@@H](CO)C(=O)N[C@@H](CC(N)=O)C(=O)N[C@H](C(=O)N[C@@H](Cc1ccc(O)cc1)C(N)=O)[C@@H](C)O)C(C)C)[C@@H](C)O [Peptide 18, K(γE-γE-C18diacid)[CNTATC]ATQRLANFLRHSSNN(αMePhe)GPILPPTEVGSNTY-amide] (H-K([γGlu-γGlu-C18 diacid])CNTATCATQRLANFLRHSSNN[αMeF]GPILPPTEVGSNTY-NH2; disulfide 2-7; N-terminus assumed) | – | – | >144 h | –
4 | CC[C@H](C)[C@H](NC(=O)[C@@H]1CCCN1C(=O)CNC(=O)[C@H](Cc1ccccc1)NC(=O)[C@H](CC(N)=O)NC(=O)[C@H](CC(N)=O)NC(=O)[C@H](CO)NC(=O)[C@H](CO)NC(=O)[C@H](Cc1c[nH]cn1)NC(=O)C(C)(C)NC(=O)[C@H](CC(C)C)NC(=O)[C@H](Cc1ccccc1)NC(=O)[C@H](CCN)NC(=O)[C@H](C)NC(=O)[C@H](CC(C)C)NC(=O)[C@H](CCCNC(=N)N)NC(=O)[C@H](CCC(N)=O)NC(=O)[C@@H](NC(=O)[C@H](C)NC(=O)[C@@H]1CSSC[C@H](NC(=O)[C@H](CCCCN)NC(=O)[C@@H](N)CCCCNC(=O)CC[C@H](NC(=O)CCCCCCCCCCCCCCCCC(=O)O)C(=O)O)C(=O)N[C@@H](CC(N)=O)C(=O)N[C@@H]([C@@H](C)O)C(=O)N[C@@H](C)C(=O)N[C@@H]([C@@H](C)O)C(=O)N1)[C@@H](C)O)C(=O)N[C@@H](CC(C)C)C(=O)N1CCC[C@H]1C(=O)N1CCC[C@H]1C(=O)N[C@H](C(=O)N[C@@H](CCC(=O)O)C(=O)N[C@H](C(=O)NCC(=O)N[C@@H](CO)C(=O)N[C@@H](CC(N)=O)C(=O)N[C@H](C(=O)N[C@@H](Cc1ccc(O)cc1)C(N)=O)[C@@H](C)O)C(C)C)[C@@H](C)O [Peptide 156] (H-K([γGlu-C18 diacid])KCNTATCATQRLA[Dab]FL[Aib]HSSNNFGPILPPTEVGSNTY-NH2; disulfide 3-8; N-terminus assumed) | – | – | >144 h | –
5 | CC[C@H](C)[C@H](NC(=O)[C@@H]1CCCN1C(=O)CNC(=O)[C@H](Cc1ccccc1)NC(=O)[C@H](CC(N)=O)NC(=O)[C@H](CC(N)=O)NC(=O)[C@H](CO)NC(=O)[C@H](CO)NC(=O)[C@H](Cc1c[nH]cn1)NC(=O)[C@@H](NC(=O)[C@H](CC(C)C)NC(=O)[C@H](Cc1ccccc1)NC(=O)[C@H](CC(N)=O)NC(=O)[C@H](C)NC(=O)[C@H](CC(C)C)NC(=O)[C@H](CCCNC(=N)N)NC(=O)[C@H](CCC(N)=O)NC(=O)[C@@H](NC(=O)[C@H](C)NC(=O)[C@@H]1CSSC[C@H](NC(=O)[C@H](CCCCN)NC(=O)COCCOCCNC(=O)COCCOCCNC(=O)CC[C@H](NC(=O)CCCCCCCCCCCCCCCCCCC(=O)O)C(=O)O)C(=O)N[C@@H](CC(N)=O)C(=O)N[C@@H]([C@@H](C)O)C(=O)N[C@@H](C)C(=O)N[C@@H]([C@@H](C)O)C(=O)N1)[C@@H](C)O)C(C)C)C(=O)N[C@@H](CC(C)C)C(=O)N1CCC[C@H]1C(=O)N1CCC[C@H]1C(=O)N[C@H](C(=O)N[C@@H](CC(N)=O)C(=O)N[C@H](C(=O)NCC(=O)N[C@@H](CO)C(=O)N[C@@H](CC(N)=O)C(=O)N[C@H](C(=O)N[C@@H](Cc1ccc(O)cc1)C(N)=O)[C@@H](C)O)C(C)C)[C@@H](C)O [Peptide 113] ({C20 diacid-γGlu-AEEA-AEEA}-KCNTATCATQRLANFLVHSSNNFGPILPPTNVGSNTY-NH2; disulfide 2-7) | – | – | <5 h | increases the fibril-forming tendency
6 | CC[C@H](C)[C@H](NC(=O)[C@@H]1CCCN1C(=O)CNC(=O)[C@H](Cc1ccccc1)NC(=O)[C@H](CC(N)=O)NC(=O)[C@H](CC(N)=O)NC(=O)[C@H](CO)NC(=O)[C@H](CO)NC(=O)[C@H](Cc1c[nH]cn1)NC(=O)[C@@H](NC(=O)[C@H](CC(C)C)NC(=O)[C@H](Cc1ccccc1)NC(=O)[C@H](CC(N)=O)NC(=O)[C@H](C)NC(=O)[C@H](CC(C)C)NC(=O)[C@H](CCCNC(=N)N)NC(=O)[C@H](CCC(N)=O)NC(=O)[C@@H](NC(=O)[C@H](C)NC(=O)[C@@H]1CSSC[C@H](NC(=O)[C@@H](N)CCCCNC(=O)CC[C@H](NC(=O)CCCCCCCCCCCCCCCCC(=O)O)C(=O)O)C(=O)N[C@@H](CC(N)=O)C(=O)N[C@@H]([C@@H](C)O)C(=O)N[C@@H](C)C(=O)N[C@@H]([C@@H](C)O)C(=O)N1)[C@@H](C)O)C(C)C)C(=O)N[C@@H](CC(C)C)C(=O)N1CCC[C@@H]1C(=O)N1CCC[C@H]1C(=O)N[C@H](C(=O)N[C@@H](CC(N)=O)C(=O)N[C@H](C(=O)NCC(=O)N[C@@H](CO)C(=O)N[C@@H](CC(N)=O)C(=O)N[C@H](C(=O)N[C@@H](Cc1ccc(O)cc1)C(N)=O)[C@@H](C)O)C(C)C)[C@@H](C)O [Peptide 104] (H-K([γGlu-C18 diacid])CNTATCATQRLANFLVHSSNNFGPIL[dP]PTNVGSNTY-NH2; disulfide 2-7; N-terminus assumed) | – | – | <5 h | –
